# Values of other authors in publication PMC4387854 (Bioorganic & medicinal chemistry, 2013).
# Marks after values point to notes of the source that are not given here.
# Key:
# [1] = preclinical evaluation in rats and dogs or in human trials
# [2] = female rats with MNU-initiated mammary tumors; ref Grubbs et al. 8
smiles,measurement,setting,value
"CC(=C/C=C/C(C)=C/C(=O)O)/C=C1\CCCc2ccccc21 [9cUAB30, (2E,4E,6Z,8Z)-8-(3’,4’-Dihydro-1’(2H)-naphthalen-1’-ylidene)-3,7-dimethyl-2,3,6-octatrienoinic acid]",Increase in serum TG,[1],no increase
same,Serum Triglyceride Increase (%),[2],65% ^d
